Data as given in EP0503044B1, “PEPTIDE COMPOUNDS OF LAEVOROTATORY AMINO ACIDS AND RING MOLECULES, AND THERAPEUTICAL APPLICATIONS THEREOF” (POLIFARMA S.p.A., priority 1990, dated 1992).
Square brackets hold non-standard residues; d marks the D form. Peptide text beside a SMILES is read from it. * marks the point of attachment. Trp(1-Me) = Cn1cc(C[C@H](N)C(=O)O)c2ccccc21; Hyp = O=C(O)[CH]1C[CH](O)CN1; Phg = N[CH](C(=O)O)c1ccccc1; pGlu = O=C1CC[CH](C(=O)O)N1; Pip = O=C(O)[C@@H]1CCCCN1; ΔPro = O=C(O)[CH]1C=CCN1; Cbz = O=C(OCc1ccccc1)*; Aze = O=C(O)[CH]1CCN1; Boc = CC(C)(C)OC(=O)*

Columns and labels:
[1] = Hot Plate test (analgesic activity); assay type: in vivo
Description: (§1) In the following examples will first of all be given the data necessary for synthesis of the compounds according to the present invention. There will then be given data regarding their pharmacological activity, using methods widely known to be valid. In particular, for the pressure tests, spontaneously hyper-tensive rats were used (SHR from the company Charles River), operated in such a way as to enable pressure to be read even when the animals were awake and free to move. In order to evaluate the analgesic activity, the Hot Plate and Writhing Tests were used. For the anti-inflammatory effect the test of carraginine edema was used. Finally, for immuno-modulating activity the evaluation of the stimulation of growth of human lymphocites in culture was resorted to, after the addition of specific antigens. The results obtained for each synthesized compound are given at the end of each example.

[2] = tested on: spontaneously hyper-tensive rats (SHR from the company Charles River); experiment: Pressure test in awake spontaneously hypertensive rats (anti-hypertensive activity); assay type: in vivo
Description: as §1, with “antigens.” for “antigens. The results obtained for each synthesized compound are given at the end of each example.”

[3] = tested on: human lymphocites in culture; experiment: Stimulation of growth of human lymphocytes in culture after addition of specific antigens (immuno-modulating activity); assay type: cell-based
Description: as §1

carraginine edema = experiment: Carrageenin edema test (anti-inflammatory effect); assay type: in vivo; conditions: dose not stated
Description: as §1, with “antigens.” for “antigens. The results obtained for each synthesized compound are given at the end of each example.”

[4] = Analgesic activity, test not given (Hot Plate and Writhing Tests used); assay type: in vivo; conditions: test and dose not stated
Description: as §1, with “antigens.” for “antigens. The results obtained for each synthesized compound are given at the end of each example.”

[5] = Writhing test (analgesic activity); assay type: in vivo; conditions: dose not stated
Description: as §1

Molecule | immune response [3] | anti-inflammatory effect (carraginine edema) | anti-hypertensive effect ([2]; dose not stated) | other results
COC(=O)[C@@H](NC(=O)[C@H](C)NC(=O)[C@@H]1CCCN1C(=O)OCc1ccccc1)c1ccccc1 [compound 5, Z-(L)-Pro(L)-Ala-(L)-PhgOMe] (Cbz-Pro-Ala-[Phg]-OMe) | – | – | – | analgesic effect using the Hot Plate test ([1]; dose not stated): moderate; anti-hypertensive effect ([2]; 8 mg/Kg i.p.): bland
COC(=O)[C@H](Cc1cn(C)c2ccccc12)NC(=O)[C@H](C)NC(=O)[C@@H]1CCCN1C(=O)OCc1ccccc1 [compound 7, Z-(L)-Pro-(L)-Ala-(1)-Me-(L)-TrpOMe] (Cbz-Pro-Ala-[Trp(1-Me)]-OMe) | – | – | – | anti-hypertensive effect ([2]; 2 mg/Kg i.v.): good; reduction in pressure ([2]; 2 mg/Kg i.v.): 10%
COC(=O)[C@H](Cc1c[nH]c2ccccc12)NC(=O)[C@H](CC(C)C)NC(=O)c1ccco1 [compound 8, 2-Fur-(L)-Leu-(L)-TrpOMe] | strongly stimulated even with small doses of peptide | slight | – | anti-hypertensive effect ([2]; 4 mg/Kg i.v.): slight
COC(=O)[C@H](Cc1c[nH]c2ccccc12)NC(=O)[C@H](CC(C)C)NC(=O)c1ccc[nH]1 [compound 9, 2-Pyrrolyl-(L)-Leu-(L)-TrpOMe] | – | bland reduction | slight | –
COC(=O)C(Cc1c[nH]c2ccccc12)NC(=O)C(CC(C)C)NC(=O)C1CCCN1C.Cl (stereo not shown) [compound 10, N-Me-(L)-Pro-(L)-Leu-(L)-TrpOMe.HCl] | slightly increased | – | – | anti-hypertensive effect ([2]; 2 mg/Kg i.v.): excellent; reduction in pressure ([2]; 2 mg/Kg i.v.): 15-20%; analgesic effect [4]: low
COC(=O)C(Cc1c[nH]c2ccccc12)NC(=O)C(CC(C)C)NC(=O)C1C=CCN1C(=O)OC(C)(C)C (stereo not drawn) [compound 13, Boc-\/^3,4-(L)-Pro-(L)-Leu-(L)-TrpOMe] (Boc-[ΔPro]-Leu-Trp-OMe; configuration not given here) | slightly increases | – | slightly anti-hypertensive | –
COC(=O)[C@H](Cc1c[nH]c2ccccc12)NC(=O)[C@H](CC(C)C)NC(=O)[C@@H]1CCCCN1C(=O)OCc1ccccc1 [compound 15, Z-(L)-Pip-(L)-Leu-(L)-TrpOMe] (Cbz-[Pip]-Leu-Trp-OMe) | slight increase | consistent | – | anti-hypertensive effect ([2]; 2 mg/Kg i.v.): good; reduction in pressure ([2]; 2 mg/Kg i.v.): up to 30%
COC(=O)C(Cc1c[nH]c2ccccc12)NC(=O)C(CC(C)C)NC(=O)C1CC(O)CN1C(=O)OCc1ccccc1 (stereo not drawn) [compound 16, Z-(L)-Hyp-(L)-Leu-(L)-TrpOMe] (Cbz-[Hyp]-Leu-Trp-OMe; configuration not given here) | – | – | bland | analgesic effect [4]: modest
COC(=O)C(Cc1c[nH]c2ccccc12)NC(=O)C(CC(C)C)NC(=O)C1CCN1C(=O)OCc1ccccc1 [compound 17, z-(S)-Aze-(L)-Leu-(L)-TrpOMe] (Cbz-[Aze]-Leu-Trp-OMe; configuration not given here) | – | bland | slight | –
COC(=O)C(NC(=O)CNC(=O)C1CCC(=O)N1)c1ccccc1 (stereo not drawn) [compound 22, (L)-Pyr-Gly-(L)-PhgOMe] ([pGlu]-Gly-[Phg]-OMe; configuration not given here) | increase | very good | – | anti-hypertensive effect ([2]; 4 mg/Kg i.p.): excellent; pressure values reduced ([2]; 4 mg/Kg i.p.): 20%; reduction of edema (carraginine edema): 70%
(L)-Pyr-(L)-Leu-(S)-CytOMe [compound 25] | – | – | bland | analgesic effect [4]: weak
(L)-Pyr-Gly-(L)-CypOMe [compound 24] | – | moderate | bland | –
(L)-Pyr-Gly-(L)-Pme [compound 23] | good | – | – | reduction of contorsions during the Writhing test [5]: 80%; anti-hypertensive effect ([2]; 8 mg/Kg i.p.): good; analgesic effect [4]: excellent
(S)-Tfc-(L)-Leu-(L)-TrpOMe [compound 18] | moderate | – | bland | –
Boc-(L)-Mep-(L)-Leu-(L)-TrpOMe [compound 12] | – | reduction of the inflammatory response | bland | –
Z-(L)-Pro-(L)-Ala-(L)-CypOMe [compound 11] | – | moderate | slight | –
Z-(L)-Pro-(L)-Ala-(L)-OmtOMe [compound 4] | slightly increased | – | – | anti-hypertensive effect ([2]; 8 mg/Kg i.v.): bland
Z-(L)-Pro-(L)-Ala-(L)-Pme [compound 6] | more consistent | rather weak | – | extension of time in the Hot Plate test ([1]; dose not stated): 25%; reduction of contorsions during the Writhing test [5]: 70%; anti-hypertensive effect ([2]; 2 mg/Kg i.v.): good; pressure reduced ([2]; 2 mg/Kg i.v., after one hour): approximately 25%; analgesic effect [4]: good
Z-(L)-Pro-(L)-Ala-(S)-CytOEt [compound 1] | – | – | – | pain killing effect under the Hot Plate test ([1]; 4 mg/Kg i.p.): slight; response of lymphocytes stimulated by phytohemoagglutinine (PHA) ([3]; PHA stimulation): increases; anti-hypertensive effect ([2]; 4 mg/Kg i.p.): good; duration of the anti-hypertensive effect ([2]; 4 mg/Kg i.p.): maintained for a number of hours; pressure values reduced ([2]; 4 mg/Kg i.p.): 15-20%
Z-(L)-Pro-(L)-Ala-CytH [compound 3] | – | – | – | anti-hypertensive effect ([2]; 8 mg/Kg i.p.): bland
Z-(L)-Pro-(L)-Ala-TrpH [compound 2] | increased, but to a lesser extent than in the previous compound | – | comparable to that of compound 1 | –
Z-(L)-Pyr-(L)-Leu-(L)-TrpOMe [compound 19] | – | fair | slight | –
Z-(L)-Pyr-(L)-Leu-(S)-CypOMe [compound 21] | good | – | slight | –
Z-(L)-Pyr-(L)-Leu-(S)-CytOMe [compound 20] | – | fair | bland | –
Z-(S)-Dhi-(L)-Leu-(L)-TrpOMe [compound 14] | – | – | bland reduction | analgesic effect [4]: moderate
